Reference: US20060216235A1, “Cancerous disease modifying antibodies” (priority 2003, published 2006)

How the values were obtained:
[1] = system: MDA-MB-231; test: Live/Dead cytotoxicity assay, hybridoma supernatants; conditions: hybridoma supernatant, 5 days
[2] = system: MDA-MB-468; test: as above; conditions: hybridoma supernatant, 5 days
[3] = system: SKBR-3; test: as above; conditions: hybridoma supernatant, 5 days
[4] = system: MB-231; set-up: key to the marks not given beside the values; conditions: purified antibody, 5 days; four experiments in triplicate
[5] = system: MB-468; set-up: key to the marks not given beside the values; conditions: purified antibody, 5 days; four experiments in triplicate
[6] = system: MCF-7; set-up: key to the marks not given beside the values; conditions: purified antibody, 5 days; four experiments in triplicate
[7] = system: HT-29; set-up: key to the marks not given beside the values; conditions: purified antibody, 5 days; four experiments in triplicate
[8] = system: SW1116; conditions: purified antibody, 5 days; four experiments in triplicate
[9] = system: SW620; conditions: purified antibody, 5 days; four experiments in triplicate
[10] = system: NCI H460; set-up: key to the marks not given beside the values; conditions: purified antibody, 5 days; four experiments in triplicate
[11] = system: OVCAR; set-up: key to the marks not given beside the values; conditions: purified antibody, 5 days; four experiments in triplicate
[12] = system: PC-3; set-up: key to the marks not given beside the values; conditions: purified antibody, 5 days; four experiments in triplicate
[13] = system: CCD 27sk; conditions: purified antibody, 5 days; four experiments in triplicate; non-cancer cells
[14] = system: Hs888 Lu; conditions: purified antibody, 5 days; four experiments in triplicate; non-cancer cells

C[C@@H]1C[C@@H]([C@H](O)CC2CC(=O)NC(=O)C2)C(=O)[C@@H](C)C1 [Cycloheximide]
Cytotoxicity (%) MB-231 Average [1]: 49%
Cytotoxicity (%) MB-468 Average [2]: 24%
Cytotoxicity (%) SKBR-3 Average [3]: 56%

[N-]=[N+]=[N-].[Na+] [NaN3]
cytotoxicity, BREAST MB-231 [4]: +++
cytotoxicity, BREAST MB-468 [5]: +++
cytotoxicity, BREAST MCF-7 [6]: +++
cytotoxicity, COLON HT-29 [7]: +++
cytotoxicity, COLON SW1116 [8]: −
cytotoxicity, COLON SW620 [9]: −
cytotoxicity, LUNG NCI H460 [10]: +++
cytotoxicity, OVARY OVCAR [11]: +++
cytotoxicity, PROSTATE PC-3 [12]: +++
cytotoxicity, NORMAL CCD27sk [13]: −
cytotoxicity, NORMAL Hs888 Lu [14]: −
